US12558345B2, “CHK1/2 inhibitors for use in the treatment of neuroblastomas and/or soft tissue sarcomas” (Eli Lilly and Company, priority 2015, dated 2026)
Where a name gives a salt, the structure may show the parent alone.

Legend:
[1] = system: Calu-6 lung tumor xenograft; assay: Human Tumor Xenograft Models, with gemcitabine: Calu-6; type: in vivo, mouse
Procedure: (§1) The ability of CHK1 inhibitors to effect tumor killing can be determined in vivo using the Calu-6 lung and HT-29 colon tumor xenograft efficacy models. Calu-6 lung cancer cells (ATCC) are cultured in growth media (MEM w/ Earle's salts (Invitrogen) with L-glutamine (Gibco™) supplemented with 10% (v/v) heat inactivated FBS (Gibco™), 1×MEM non-essential amino acids (Gibco™), 1×sodium pyruvate (Gibco™)) and HT-29 colon cancer cells (ATCC) are cultured in growth media, (McCoy's 5A medium (Gibco™) supplemented with 10% FBS (Gibco™)) and expanded. Cells are harvested and washed twice with phosphate buffered saline and 5×10^6 cells (HT-29) or 1×10^6 cells (Calu-6) in growth media (without serum) are mixed with equal volume of BD Matrigel™ matrix (BD Bioscience, Franklin, NJ), then injected subcutaneously into the flank of nude mice (CD-1 nu/nu, from Charles River Labs, Wilmington, MA). At about day 16 after implant (150-200 mm^3), gemcitabine is formulated fresh in saline daily and administered to animals by intraperitoneal route at 60 mg/kg dose. […] Tumor response is determined by tumor volume measurement performed twice a week during the course of treatment. Tumor growth inhibition (TGI) is calculated as the percent reduction in mean tumor size of a compound treated group from the mean tumor size of the vehicle-treated control group.

[2] = system: Thirty solid tumor cell lines from 13 tumor histotypes; assay: Monolayer Proliferation and Cytotoxicity Assay (Oncotest, modified PI assay); type: cell-based; details: 96 h, 4 days of treatment, PI fluorescence, read-out: EC50, growth inhibition of the majority of the tumor cell lines
Text: One measure of potency of a CHK1 inhibitor is its ability to inhibit the proliferation of cancer cells in culture due to uncontrolled replication origin activation. (Conti et al. Cell Cycle 6: 2760-2767, 2007) Determination of CHK1 inhibitor antiproliferative activity in cell lines derived from a broad range of tumor types is indicative of which tumor types may be clinically responsive to chemotherapy with CHK1 inhibitors. The following described cellular proliferation assay is run at Oncotest, GmbH in Germany. Thirty solid tumor cell lines are derived from 13 different tumor histotypes, each represented by 1 to 6 different cell lines (Oncotest, GmbH). […] Briefly, adherent cells are harvested from exponential phase cultures by trypsinization, counted and plated in 96 well flat-bottomed microtiter plates at a cell density depending on the cell line (4.000-20.000 cells/well). […] Finally, PI fluorescence is measured using the Cytofluor 4000 microplate reader (excitation k=530 nm, emission k=620 nm) to determine the total viable cell number. Growth inhibition is expressed as Test/Control×100 (% T/C) values. Based on the T/C values, relative IC50 values are determined using non-linear regression (log[conc. of inhibitor] versus response (% T/C)).

[3] = system: HT-29 colon tumor xenograft; assay: Human Tumor Xenograft Models, with gemcitabine: HT-29; type: in vivo, mouse
Procedure: as §1

[4] = system: ST162 patient-derived xenograft; assay: Xenograft Tumor Model ST162; type: in vivo, mouse; details: ST162, LMS, comparator day 39, p-value <0.001
Procedure: (§2) For all “ST” models (encompassing RMS and LMS), patient-derived xenografts are established from viable human tumor tissue and are serially passaged in animals a limited number of times to maintain tumor heterogeneity. In subcutaneous models, athymic nude mice (Crl:NU(NCr)-Foxn1nu) or CB-17 SCID mice (CRL-CB17/Icr-Prkdcscid/IcrIcoCrl) are injected or implanted unilaterally into the flank with tumor fragments harvested from host animals, each implanted from a specific passage lot. For all studies, measure tumor growth and body weight twice per week beginning on the seventh day after implantation. When tumor size reaches 150-300 mm^3, randomize animals and group into groups of 4-7 animals. Prepare test compound in an appropriate vehicle (e.g. vehicle can be 20% Captisol® in sterile water) and administer subcutaneously for three consecutive days followed by a four day dosing holiday and repeat for a minimum of four weeks. Tumor response is determined by tumor volume measurement performed twice per week during the course of treatment.

DSRCT xenograft models = assay: Sarcoma xenograft models by tumor subtype: DSRCT; type: in vivo, mouse
Procedure: (§3) The efficacy of 5-(5-(2-(3-aminopropoxy)-6-methoxyphenyl)-1H-pyrazol-3-ylamino)pyrazine-2-carbonitrile methanesulfonic acid monohydrate is measurable in vivo in mouse models of neuroblastomas and human pediatric and adult sarcomas. 5-(5-(2-(3-Aminopropoxy)-6-methoxyphenyl)-1H-pyrazol-3-ylamino)pyrazine-2-carbonitrile methanesulfonic acid monohydrate (10 mg/kg) can be administered subcutaneously to nude mice bearing either cell-derived xenografts (CDX) or patient-derived xenografts (PDX) of human rhabdomyosarcoma, desmoplastic small round cell tumor (DSRCT), osteosarcoma, and Ewing's sarcoma using a 3 day on, 4 day off b.i.d. dosing schedule. Tumor volume and body weight can be measured two times per week. Tumor-specific parameters can be evaluated by immumohistochemistry.
For all “CTG” models (encompassing human RMS, DSRCT, EWS, OS and LMS patient-derived xenograft models), female NCr nude spontaneous mutant mice (5-8 weeks old, Taconic) are implanted unilaterally in the flank region with tumor fragments harvested from donor animals, each implanted from a specific passage lot.
as §2

[5] = system: CTG-0785 EWS patient-derived xenograft; assay: Xenograft Tumor Model CTG-0785; type: in vivo, mouse; details: comparator day 18, p-value 0.052
Procedure: as §3, with “immumohistochemistry. […]” for “immumohistochemistry.”
For all “ST” models (encompassing RMS and LMS), patient-derived xenografts are established from viable human tumor tissue and are serially passaged in animals a limited number of times to maintain tumor heterogeneity. […] Tumor response is determined by tumor volume measurement performed twice per week during the course of treatment.

SMILES | increase in tumor growth inhibition over gemcitabine alone ([1]; Calu-6, combination with gemcitabine) | anti-tumor activity ([1]; Calu-6, dosed alone and in combination with gemcitabine 60 mg/kg ip, compound iv +24 hours, Q3Dx4) | EC50 [2] | increase in tumor growth inhibition over gemcitabine alone ([3]; HT-29, combination with gemcitabine) | anti-tumor activity ([3]; HT-29, dosed alone and in combination with gemcitabine 60 mg/kg ip, compound iv +24 hours, Q3Dx4) | % Regression [4] | Result of Treatment: Complete Response (models) (DSRCT xenograft models; DSRCT, age of patients 20 years) | tumor response when re-challenged (DSRCT xenograft models; PDX model of DSRCT, after regrowth) | time post-treatment at which tumor growth is observed (DSRCT xenograft models; PDX model of DSRCT, upon cessation of therapy) | tumor response in a PDX model of DSRCT (DSRCT xenograft models; following four dosing cycles) | % T/C [5]
COc1cccc(OCCCN)c1-c1cc(Nc2cnc(C#N)cn2)n[nH]1 [Example 2, 5-(5-(2-(3-Aminopropoxy)-6-methoxyphenyl)-1H-pyrazol-3-ylamino)pyrazine-2-carbonitrile dihydrogen chloride salt] | up to a six-fold increase | excellent dose dependent anti-tumor activity | < 20 nM | up to a six-fold increase | excellent dose dependent anti-tumor activity | – | – | – | – | – | –
COc1cccc(OCCCN)c1-c1cc(Nc2cnc(C#N)cn2)n[nH]1 [Example 5, 5-(5-(2-(3-Aminopropoxy)-6-methoxyphenyl)-1H-pyrazol-3-ylamino)pyrazine-2-carbonitrile methanesulfonic acid monohydrate] | – | – | – | – | – | −93% | 1/1 Complete | tumor regression | 50 days | complete regression | 57%
